The values that follow come from publication PMC1781467, “In silico panning for a non-competitive peptide inhibitor” (BMC Bioinformatics, 2007).

Test [1] addresses T1, PQQGDH (Acinetobacter calcoaceticus, UniProt P13650). Set-up: method as in PMID 12882541. Particulars: peptide from phage display peptide library; cited from earlier work.
The target in test [2] is T1, PQQGDH. Description: PQQGDH activity for glucose in the presence of synthetic peptides (PMS/DCIP assay). Type of test: biochemical. Particulars: derived from the Dixon plot; 0.57 nM apo-PQQGDH, glucose substrate, pH 7.0; read-out: Ki (inhibition constant). The procedure:
The three peptides with the lowest docking energies, GEKD, GERD, and SERG, and the control peptide DDDD were synthesized by Qiagen (Chatsworth, CA, USA). […] In general, purified PQQGDH is a mixture of an apo- and holo-type enzyme. Therefore, we dialyzed the enzyme against 100 mM EDTA and 10 mM MOPS-NaOH buffer for 2 days, to remove the Ca^2+ ions. Each synthesized peptide was prepared at concentrations of 0.2, 1, 2, 10, and 20 μM. The prepared peptides and 0.57 nM of apo-PQQGDH were incubated in 10 mM MOPS-NaOH buffer (pH 7.0) for 10 min at room temperature. PQQGDH activity was measured using 0.6 mM PMS and 0.06 mM DCIP. Decreased in the absorbance of DCIP at 600 nm at various concentrations of glucose were monitored, and the kinetic parameters of PQQGDH were as described previously. The kinetic parameters and Ki values were calculated using the KaleidaGraph software.

pKi: −log10 of the molar value. Ends that are not written are not given here. Peptide text beside a SMILES is read from it.

T1 sequence (P13650 25-478): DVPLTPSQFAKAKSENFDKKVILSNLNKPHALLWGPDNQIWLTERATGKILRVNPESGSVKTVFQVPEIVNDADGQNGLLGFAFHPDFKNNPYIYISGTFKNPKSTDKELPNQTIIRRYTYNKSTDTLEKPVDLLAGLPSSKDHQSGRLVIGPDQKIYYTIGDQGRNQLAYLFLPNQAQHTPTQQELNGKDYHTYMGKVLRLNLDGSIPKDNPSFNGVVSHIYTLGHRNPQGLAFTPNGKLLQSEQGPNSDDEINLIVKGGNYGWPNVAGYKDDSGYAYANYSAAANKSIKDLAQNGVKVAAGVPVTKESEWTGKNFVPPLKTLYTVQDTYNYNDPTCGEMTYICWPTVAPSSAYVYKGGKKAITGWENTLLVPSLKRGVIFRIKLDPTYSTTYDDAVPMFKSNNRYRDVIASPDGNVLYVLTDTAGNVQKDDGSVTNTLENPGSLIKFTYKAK

“TTATEYS [seven-amino-acid peptide previously identified from a phage display peptide library]”: the “Effect on substrate specificity of PQQGDH” value with PQQGDH [1] is on record as “narrowed the substrate specificity of PQQGDH without significant loss of enzyme activity”.

Regarding `N[C@@H](CC(=O)O)C(=O)N[C@@H](CC(=O)O)C(=O)N[C@@H](CC(=O)O)C(=O)N[C@@H](CC(=O)O)C(=O)O` [DDDD] (H-DDDD-OH), the pKi at PQQGDH [2] was less than 4.00.

`N=C(N)NCCC[C@H](NC(=O)[C@H](CCC(=O)O)NC(=O)CN)C(=O)N[C@@H](CC(=O)O)C(=O)O` [GERD] (H-GERD-OH): the negative-log Ki (pKi) on PQQGDH [2] is less than 4.70.

Turning to `NCCCC[C@H](NC(=O)[C@H](CCC(=O)O)NC(=O)CN)C(=O)N[C@@H](CC(=O)O)C(=O)O` [GEKD] (H-GEKD-OH), the pKi on PQQGDH [2] was less than 4.70.

As to `N=C(N)NCCC[C@H](NC(=O)[C@H](CCC(=O)O)NC(=O)[C@@H](N)CO)C(=O)NCC(=O)O` [SERG] (H-SERG-OH), the pKi at PQQGDH [2] was 4.70.
